Test results taken from article PMC6820371, “Terbium-161 for PSMA-targeted radionuclide therapy of prostate cancer” (European Journal of Nuclear Medicine and Molecular Imaging, 2019).
Marks after values point to notes of the source that are not given here.

Test system: PC-3 PIP tumor-bearing mice
Assay: Therapy study - assessment of potential early side effects
Type: in vivo
Set-up: key to Histology: Bone marrow sternum / Histology: Sternum (bone) / Histology: Bone marrow femur / Histology: Femur and tibia (bone) / Histology: Salivary glands / Histology: Mandibular lymph node: NHAIR: no histological abnormality is recognized; IC: increased cellularity, myeloid lineage; SH: Sinus histiocytosis; LH: lymphoid hyperplasia; 1: minimal severity; 2: mild; 3: moderate; 4: marked; 5: severe
Settings: for ALB (blood plasma) / ALP (blood plasma) / BUN (blood plasma) / CRE (blood plasma) / TBIL (blood plasma): at euthanasia; for Brain mass / Kidney mass / Liver mass / Spleen Mass: day of euthanasia; for Histology: Bone marrow femur / Histology: Bone marrow sternum / Histology: Femur and tibia (bone) / Histology: Mandibular lymph node / Histology: Salivary glands / Histology: Sternum (bone): individual mice M1-M6
Description: Potential early side-effects related to the exposure to radiation were evaluated by the assessment of absolute and relative (to body and to brain) organ weights, selected clinical chemistry plasma parameters including creatinine (CRE), blood urea nitrogen (BUN), alkaline phosphatase (ALP), total bilirubin (TBIL), and albumin (ALB), as well as via histological analysis of bone marrow and salivary glands. The data were analyzed for statistical significance (Supplementary material).
Body and organ mass and mass ratios: As a measure to identify undesired side effects, body weights were compared at the day when the first control mouse had to be euthanized (Day 18; Table S3). The relative body weight (RBW) and the relative tumor volume (RTV) were calculated as stated in the main manuscript. Kidneys, liver, spleen and brain were collected and weighed at the day of euthanasia when an endpoint was reached or at the end of the study at Day 84 (Table S3). The organ mass-to-body mass and the organ-mass-to-brain-mass ratios were calculated for kidneys, liver and spleen (Table S4). The average organ masses of mice from each group were analyzed for significance using a one-way ANOVA test with a Tukey’s post correction (GraphPad Prism software, version 7). A p-value of <0.05 was considered as statistically significant.
Blood plasma parameters: Blood was taken from the retrobulbar vein immediately before euthanasia for determination of blood plasma parameters. The values of creatinine (CRE), blood urea nitrogen (BUN), alkaline phosphatase (ALP), total bilirubin (BIL) and albumin (ALB) were determined in the plasma after centrifugation of the blood using a dry chemistry analyzer (DRI-CHEM 4000i, FUJIFILM, Japan) (Table S5). The average blood plasma parameters of each group were analyzed for significance using a one-way ANOVA test with a Tukey’s post correction (GraphPad Prism software, version 7). A p-value of <0.05 was considered as statistically significant.
Necropsy, tissue processing and histological examination: After euthanasia and exsanguination, mice were dissected and, after a full macroscopic examination, sternum, femur and salivary glands were quickly removed and fixed in 4% neutral-buffered formalin (Formafix, Hittnau, Switzerland). After adequate fixation, femoral and sternal bones were decalcified in 10% ethylenediamine tetraacetic acid over a period of 5 days. Both bones and the salivary glands were subsequently trimmed, dehydrated through graded alcohols and routinely paraffin wax embedded. Sections (3–5 µm) were prepared, mounted on glass slides and routinely stained with hematoxylin and eosin (HE). Microscopic findings in the HE-stained livers were classified with standard pathological nomenclature and grading system.

O=C([O-])CN1CCN(CC(=O)[O-])CCN(CC(=O)NCC2CCC(C(=O)NC(Cc3ccc4ccccc4c3)C(=O)NCCCCC(NC(=O)NC(CCC(=O)O)C(=O)O)C(=O)O)CC2)CCN(CC(=O)[O-])CC1.[161Tb+3] (centres unmarked) [^161Tb-PSMA-617]
Body weight at Day 0 (5.0 MBq): 17 ± 1.2 g | Body weight at Day 18 (5.0 MBq): 17 ± 1.2 g | Body weight at Day of euthanasia (5.0 MBq): 15 ± 1.7 g | Body weight over time (5.0 MBq): body weight loss over time | Kidney-to-body ratio (5.0 MBq): 0.014 ± 0.001 | Kidney-to-brain ratio (5.0 MBq): 0.50 ± 0.11 | Liver-to-body ratios (5.0 MBq): 0.048 ± 0.010 | Liver-to-brain ratios (5.0 MBq): 1.8 ± 0.71 | Spleen-to-body ratios (5.0 MBq): 0.004 ± 0.001 | Spleen-to-brain ratios (5.0 MBq): 0.16 ± 0.05 | Undesired side-effects (5.0 MBq and 10 MBq): no signs of undesired side-effects were detectable | ALB (blood plasma) (5.0 MBq): 21 ± 1 g/L | ALP (blood plasma) (5.0 MBq): 44 ± 1 U/L | BUN (blood plasma) (5.0 MBq): 8.3 ± 0.50 mmol/L | CRE (blood plasma) (5.0 MBq): <18 µmol/L | TBIL (blood plasma) (5.0 MBq): 4 ± 1 µmol/L | Brain mass (5.0 MBq): 371 ± 15 mg | Kidney mass (5.0 MBq): 208 ± 19 mg | Liver mass (5.0 MBq): 737 ± 143 mg | Spleen Mass (5.0 MBq): 63 ± 13 mg | Histology: Bone marrow femur (5 MBq): NHAIR | Histology: Bone marrow sternum (5 MBq): NHAIR | Histology: Femur and tibia (bone) (5 MBq): NHAIR | Histology: Mandibular lymph node (5 MBq): NHAIR and SH 1 and LH 1 | Histology: Salivary glands (5 MBq): NHAIR | Histology: Sternum (bone) (5 MBq): NHAIR | Histological changes in the bone marrow and the salivary glands attributable to application (5.0 and 10 MBq/mouse): no histological changes | Blood plasma parameters compared to control group (5.0 and 10 MBq/mouse, p>0.05): did not show any significant differences | Body weight at Day 0 (10 MBq): 18 ± 1.0*^3) g | Body weight at Day 18 (10 MBq): 19 ± 1.2*^4) g | Body weight at Day of euthanasia (10 MBq): 19 ± 1.6*^5) g | Body weight over time (10 MBq): remained stable | Kidney-to-body ratio (10 MBq): 0.014 ± 0.001 | Kidney-to-brain ratio (10 MBq): 0.64 ± 0.09^*2) | Liver-to-body ratios (10 MBq): 0.054 ± 0.002 | Liver-to-brain ratios (10 MBq): 2.5 ± 0.87 | Spleen-to-body ratios (10 MBq): 0.005 ± 0.001 | Spleen-to-brain ratios (10 MBq): 0.23 ± 0.05^*3) | ALB (blood plasma) (10 MBq): 19 ± 1 g/L | ALP (blood plasma) (10 MBq): 54 ±15 U/L | BUN (blood plasma) (10 MBq): 7.8 ± 1.3 mmol/L | CRE (blood plasma) (10 MBq): <18 µmol/L | TBIL (blood plasma) (10 MBq): 4 ± 1 µmol/L | Brain mass (10 MBq): 402 ± 18 mg | Kidney mass (10 MBq): 258 ± 41*^5) mg | Liver mass (10 MBq): 994 ± 65*^5) mg | Spleen Mass (10 MBq): 92 ± 22*^5) mg | Histology: Bone marrow femur (10 MBq): NHAIR | Histology: Bone marrow sternum (10 MBq): IC 1 and NHAIR | Histology: Femur and tibia (bone) (10 MBq): NHAIR | Histology: Mandibular lymph node (10 MBq): SH 2 LH 1 and SH 1 and LH 1 and NHAIR | Histology: Salivary glands (10 MBq): NHAIR | Histology: Sternum (bone) (10 MBq): NHAIR
